Measurements from patent publication US20050164233A1, “Compositions, kits and methods for identification and modulation of type I diabetes” (priority 2000, published 2005).

Key:
[1] = test system: Vα24JαQ T cell clone GW4 (nondiabetic, IL-4+); experiment: Cytokine secretion (ELISA) from anti-CD3-activated Vα24JαQ T cell clone GW4, inhibitor studies; assay type: cell-based, human; settings: IL-4+ clone; for secretion of IFN-γ / anti-CD3-induced IL-4 secretion: plate-bound anti-CD3 1 μg/ml, 4 h, ELISA, 10 nM wortmannin; for secretion of IFN-γ: 10 μM LY294002; for anti-CD3-induced IL-4 secretion: 10 μM LY294002, 50 μM PD98059, 50 μM SB203580; for IL-4 secretion after inhibition of PI3-kinase: anti-CD3 plus PI3-kinase inhibitor, 1 ng/ml PMA or 1 μg/ml ionomycin included
Protocol: (§1) Single, Vα24-positive, CD4/8 negative single-cell sorts were grown on irradiated allogeneic feeders at 50,000 cells per well with 5,000 cells per well irradiated (5,000 rads) 721.221 lymphoblastoid cells with 1 μg/ml PHA-P, IL-2 and IL-7 each at 10 units/ml (Boehringer Mannheim) and propagated as described (Wilson et al. (1998) Nature 391: 177-181). Clones positive for Vα24 and NKR-P1A by flow cytometry and a Vα24JαQ CDR3 T cell antigen receptor sequence were assayed for cytokine secretion in C1R/CD1s restriction experiments. For cytokine secretion and inhibitor studies, Vα24JαQ T cell clones GW4 (nondiabetic) and ME10 (diabetic) at 5×10^4 cells per well were activated with plate-bound anti-CD3 or Ig control at 1 μg/ml. Secreted IL-4 and IFN-γ were assayed by ELISA after 4 h of activation as described (Wilson et al. (1998) Nature 391: 177-181). Optimal concentrations of inhibitors previously were determined by inhibitor dose-response experiments. The concentrations of inhibitors used were 10 nM wortmannin; 10 μM LY294002, 50 μM PD98059, a mitogen-activated protein kinase kinase inhibitor, and 50 μM SB203580, a p38 kinase inhibitor. The concentrations of phorbol ester and calcium ionophore used were 1 ng/ml phorbol 12-myristate 13-acetate (PMA) and 1 μg/ml ionomycin. Cyclosporin A (CsA) was used at 5 ng/ml as a negative control, due to itS ability to prevent T cell activation. Calcium flux was determined by loading cells with indo-1 as per the manufacturer's specifications (Molecular Probes), followed by activation with anti-CD3 at 10 μg/ml. Maximal calcium flux was determined by the addition of ionomycin.

[2] = test system: Vα24JαQ T cell clone ME10 (diabetic, IL-4-null); experiment: Cytokine secretion (ELISA) from anti-CD3-activated Vα24JαQ T cell clone ME10, inhibitor studies; assay type: cell-based, human; settings: for secretion of IFN-γ: IL-4-null clone, plate-bound anti-CD3 1 μg/ml, 4 h, ELISA, 10 nM wortmannin, 10 μM LY294002; for defect in IL-4 secretion: diabetic-derived clone ME10, 1 ng/ml PMA, 1 μg/ml ionomycin, alone or in combination
Protocol: as §1

Row | Compound | secretion of IFN-γ [1] | secretion of IFN-γ [2] | anti-CD3-induced IL-4 secretion [1] | IL-4 secretion after inhibition of PI3-kinase [1] | defect in IL-4 secretion [2]
1 | O=c1cc(N2CCOCC2)oc2c(-c3ccccc3)cccc12 [LY294002] | no effect | no effect | – | – | –
2 | COc1cccc(-c2cc(=O)c3ccccc3o2)c1N [PD98059] | – | – | no effect | – | –
3 | CCCCCCCCCCCCCC(=O)O[C@@H]1[C@@H](C)[C@@]2(O)[C@@H](C=C(CO)C[C@]3(O)C(=O)C(C)=C[C@@H]23)[C@@H]2C(C)(C)[C@]12OC(C)=O [PMA, phorbol 12-myristate 13-acetate] | – | – | – | rescued | Neither of these substances alone or in combination repaired the defect
4 | C[S+]([O-])c1ccc(-c2nc(-c3ccncc3)c(-c3ccc(F)cc3)[nH]2)cc1 (stereo not shown) [SB203580] | – | – | no effect | – | –
5 | C[C@H](CCC(=O)O)C[C@H](C)C[C@H](C)C(=O)/C=C(\O)[C@H](C)C[C@H](C)C/C=C/[C@@H](C)[C@@H](O)[C@@H](C)[C@@H](O)C[C@@H]1CC[C@@](C)([C@H]2CC[C@@](C)([C@@H](C)O)O2)O1 [ionomycin] | – | – | – | rescued | Neither of these substances alone or in combination repaired the defect
6 | COC[C@H]1OC(=O)c2coc3c2[C@@]1(C)C1=C(C3=O)[C@@H]2CCC(=O)[C@@]2(C)C[C@H]1OC(C)=O [wortmannin] | no effect | no effect | – | – | –
